In brackets after ≈: the same amount, converted by molar mass.
Legend:
[1] = system: E. cloacae 135, AmpC-overproducing; experiment: MIC of third-generation cephalosporins alone and with compounds (Table 6); type: cell-based, Enterobacter cloacae; conditions: antibiotic alone
Experimental: (§1) The anti-resistance activity of inhibitors was investigated by the determination of the minimum inhibitory concentrations (MICs) of the β-lactam/inhibitor combination necessary to inhibit the growth of clinically-isolated bacteria resistant to third-generation cephalosporins via expression of class A or class C β-lactamases (Table 6).
(§2) Susceptibility testing was performed and interpreted following the guidelines of CLSI. (Clinical and Laboratory Standards Institute, Performance standards for antimicrobial susceptibility testing, 20th Informational Supplement, M100-S20 2010) The compounds were dissolved in 50% DMSO, and dilutions were performed using Muller-Hinton medium. An adequate final concentration was obtained to determine the minimum inhibitory concentrations (MICs). The concentration of DMSO was maintained below 5%. The inhibitors were tested for synergy with the third-generation β-lactams ceftazidime and cefotaxime against several clinical bacteria. The ratio of β-lactams to inhibitors was 1:4. Each value reported reflects the average of three independent experiments. […] The Friedman's test and the Wilcoxon signed rank test were used to compare MIC values. Statistical significance was established at p<0.05.
(§3) Table 6. MICs (μg/ml) of third-generation cephalosporins alone and in association with the compounds (ratio 1/4) for clinical bacteria. CTX, cefotaxime and CAZ, ceftazidime. ^1, AmpC-overproducing bacteria; ^2, CTX-M-14-producing E. coli; ^3, KPC-2-producing K. pneumoniae; ^4, OXA-48-producing K. pneumoniae; ^5, NDM-1-producing C. freundii.

[2] = system: E. cloacae, AmpC-overproducing; experiment: as above; type: cell-based, Enterobacter cloacae; conditions: antibiotic alone
Experimental: as §1, §2, §3

[3] = system: E. cloacae overproducing chromosomally-mediated class C β-lactamase; experiment: MIC of third-generation cephalosporins alone and with compounds 4 or 9 (Table 3); type: cell-based, Enterobacter cloacae; conditions: antibiotic alone
Source text: Antimicrobial activity was investigated quantitatively to determine the minimum inhibitory concentrations (MICs) of the β-lactam/inhibitor combination necessary to inhibit the bacterial growth (Table 3). The MICs of β-lactams alone against the strains corresponded to a high level of resistance according to Clinical and Laboratory Standards Institute (CLSI) standards. (Clinical and Laboratory Standards Institute, Performance standards for antimicrobial susceptibility testing, 20th Informational Supplement, M100-S20 2010) The compounds had no measurable antibiotic activity when used alone.
Susceptibility testing was performed and interpreted following the guidelines of CLSI. (Clinical and Laboratory Standards Institute, Performance standards for antimicrobial susceptibility testing, 20th Informational Supplement, M100-S20 2010) The compounds were dissolved in 50% DMSO, and dilutions were performed using Muller-Hinton medium. An adequate final concentration was obtained to determine the minimum inhibitory concentrations (MICs). The concentration of DMSO was maintained below 5%. The inhibitors were tested for synergy with the third-generation β-lactams ceftazidime and cefotaxime against several clinical bacteria. […] Each value reported reflects the average of three independent experiments. […] A Klebsiella pneumoniae isolate produced the inducible plasmid-mediated class C enzyme DHA-1. The Friedman's test and the Wilcoxon signed rank test were used to compare MIC values. Statistical significance was established at p<0.05.

[4] = system: K. pneumoniae, AmpC-overproducing; experiment: MIC of third-generation cephalosporins alone and with compounds (Table 6); type: cell-based, Klebsiella pneumoniae; conditions: antibiotic alone
Experimental: as §1, §2, §3

[5] = system: OXA-48-producing K. pneumoniae; experiment: as above; type: cell-based, Klebsiella pneumoniae; conditions: antibiotic alone
Experimental: as §1, §2, §3

[6] = system: AmpC-overproducing Escherichia coli strain 4; experiment: Mouse model of bacteremia and sepsis, survival; type: in vivo, OF1 mice; conditions: 120 h post infection; ip at 0.5, 3.5, 6.5 h; imipenem 50 mg/kg, cefotaxime 50 mg/kg, cefotaxime:CR161 50:200 mg/kg
Experimental: FIG. 17. Percentage of survival of mice infected with AmpC-overproducing Escherichia coli over the course of 5 days (120 h). Mice were inoculated by intraperitoneal injection with AmpC-overproducing Escherichia coli strain 4 (1±0.5 10^9 colony-forming units) and treated at 0.5, 3.5, 6.5 h after infection by intraperitoneal injection of 50 mg/kg imipenem (□, n=20), 50:200 mg/kg cefotaxime:CR161 combination (▪, n=17), 50 mg/kg cefotaxime (●, n=20) or sterile isotonic saline (◯, n=20).
Efficacy in a mouse model of infection. We had not observed such substantial reversal of bacterial resistance to β-lactams, across such a broad spectrum of clinical isolates, for previous series of boronic acid inhibitors of β-lactamase; indeed, this lack of efficacy had motivated this study. These new cell-culture MIC values inspired us to investigate the efficacy of one of these compounds in a mouse model of bacteremia and sepsis. […] Mice were treated with cefotaxime alone, cefotaxime combined with compound CR161, with sterile isotonic saline, and with imipenem as a reference treatment of systemic infections by cephalosporin-resistant enterobacteriaceae (FIG. 17); 20 mice were used in each clade. […]
OF1 mice 4-5 weeks of age and weighing 20-25 g were used in this study. […] The survival of mice in each group was monitored every 6 h for 5 days after infection. […]

[7] = system: hospital-derived strain of E. coli that overproduces AmpC; experiment: MIC for the strain used in the mouse model; type: cell-based; conditions: Escherichia coli

CO/N=C(\C(=O)N[C@@H]1C(=O)N2C(C(=O)O)=C(COC(C)=O)CS[C@H]12)c1csc(N)n1 [Cefotaxime]
MIC, cephalosporin alone [1]: 128 µg/mL | MIC, cephalosporin alone [2]: 64 µg/mL | MIC, cephalosporin alone [3]: 64 µg/mL | MIC, cephalosporin alone [4]: 8 µg/mL | MIC, cephalosporin alone [5]: 256 µg/mL | survival [6]: 15% | MIC [7]: 32 µg/mL (≈ 70.3 µM)
